Test results: patent US20180280329A1, “INHIBITORS OF PLASMINOGEN FOR TREATING, REDUCING OR PREVENTING RADIATION-INDUCED INJURIES” (OMNIO AB, priority 2015, published 2018)

Legend:
PAI-1 = assay: Quantitative RT-PCR of irradiated skin: PAI-1 mRNA; type: in vivo, mouse; conditions: irradiated WT mice, TXA in drinking water, day 9 after irradiation
Protocol: (§1) Skin samples were homogenized in TRIzol (Ambion) using Precellys CK28R tubes on a Precellys 24 homogenizer (both from Bertin Technologies, France) according to the manufacturer's instructions. Total RNA was extracted with PureLink RNA Mini Kit (Ambion) according to the manufacturer's instruction. 2.5 μg of total RNA was reverse transcribed using Superscript VILO cDNA synthesis kit (Invitrogen) and diluted 3 fold with DEPC-water. Expression of genes were analyzed using quantitative real-time PCR with Comparative CT method and with TBP mRNA as the internal reference gene. The gene-specific primers and probes (TaqMan Gene Expression Assays) were from Applied Biosytems, and 2× SsoAdvanced Universal Probes Supermix was from BIO-RAD. Each sample was run in triplicate on StepOnePlus Instrument (Applied Biosystems) using real-time PCR cycling conditions for 2× SsoAdvanced Universal Probes Supermix.
(§2) In this experiment, mice were treated as in Example 3, with the exception that TXA was given in drinking water in dose 700 mg/kg/day. Real-time PCR was performed as described in Example 3.

plasminogen = biological target: T1, plasminogen (Mus musculus, UniProt P20918); assay: Burn wound model: plasminogen accumulation in wound skin extracts (ELISA); type: in vivo; conditions: WT mice, TXA 800 mg/kg injected three times at 8 h intervals, skin at 24 h after wounding, compared to mice treated with PBS
T1 construct: Burn wounds were introduced to three WT mice and TXA (800 mg/kg) was injected three times at 8 h intervals; from tissue; host or cells: skin of wild-type mice (burn wound), in vivo
Protocol: Dorsal skin samples from irradiated and not-irradiated control mice were homogenized in a lysis buffer (50 mM Tris-HCl buffer pH 8.0 with 120 mM NaCl, 1 mM EDTA, 6 mM EGTA, 1% NP-40 and 1 mM DTT) supplemented with PhosSTOP phosphatase inhibitors and Complete Ultra mini protease inhibitor cocktail tablets (both from Roche, Basel, Switzerland). The skin extracts were then kept at −20° C. until use. Total protein concentration in the extracts was quantified using Pierce BCA protein assay kit, according to the manufactural instruction (ThermoFisher Scientific, Waltham, U.S.A). Mouse IL-6 and TNF-alpha levels in the extracts were measured using specific ELISA kits from eBioscience (San Diego, U.S.A). Mouse plasminogen was quantified with a mouse plasminogen-specific ELISA (Omnio AB, Umeå, Sweden).
Mice were anesthetized with Dormicum/Hypnorm and burn wounds were made with a brass stave as described previously (Shen et al. 2012, Blood 119:5879). The mice were given a single injection of Temgesic (Schering-Plough, Brussels, Belgium) the day after burning. All mice were individually caged, and wounds were neither sutured nor dressed.
Initially, the burn wound model (Shen et al. 2012, Blood 119:5879) was used to test whether TXA has an effect on plasminogen accumulation in the wound. […]

IL-1β = assay: Quantitative RT-PCR of irradiated skin: IL-1β mRNA; type: in vivo, mouse; conditions: irradiated WT mice, TXA in drinking water, day 9 after irradiation
Protocol: as §1, §2

IL-6 = assay: Quantitative RT-PCR of irradiated skin: IL-6 mRNA; type: in vivo, mouse; conditions: irradiated WT mice, TXA in drinking water, day 9 after irradiation
Protocol: as §1, §2

[1] = test system: radiation-induced dermatitis; assay: Radiation-induced dermatitis model (15 Gy to dorsal skin), radio-dermatitis documented by photos and scored; type: in vivo, mouse; conditions: for development and severity of radio-dermatitis: irradiated WT mice
Protocol: Dorsal skin of mice had been shaved 3 days prior to irradiation. For the irradiation, the mice were anesthetized by intraperitoneal injection of 150 μl mixture containing Ketaminol vet. (Intervet AB, Sollentuna, Sweden) and Dormitor vet. (Orion Pharma AB, Espoo, Finland). Mice were laid into a lead box to protect the whole body from irradiation, while the dorsal skin was gently stretched out through a 4 cm-long gap in the bottom of the box and maintained with medical tape. Irradiation box with a mouse was then placed in Gammacell 40 exactor (Ashford, UK) that has two Caesium-137 sources. Irradiation was given as a single dose of 1 Gy per minute over 15 min (total dose 15 Gy).
Digital photographs of the dorsal skin were taken on the specified days after irradiation. The wound size was quantified using Image J (National Institute of Mental Health, Bethesda, Md.). Severity of radio-dermatitis was scored, with the scores defined as: 0=normal, 1=erythema, 2=desquamation, 3=ulcer.
WT and plg^+/− were intraperitoneally injected with 800 mg/kg of TXA in PBS three times per day. The injections started 2 days before the irradiation and continued for 15 days after the irradiation. Development of dermatitis was documented by digital photos and skin samples were analyzed as described in Example 2.
as §2

TGF-β = assay: Quantitative RT-PCR of irradiated skin: TGF-β mRNA; type: in vivo, mouse; conditions: irradiated WT mice, TXA in drinking water, day 9 after irradiation
Protocol: as §1, §2

T1 sequence (P20918 20-812 limits assumed): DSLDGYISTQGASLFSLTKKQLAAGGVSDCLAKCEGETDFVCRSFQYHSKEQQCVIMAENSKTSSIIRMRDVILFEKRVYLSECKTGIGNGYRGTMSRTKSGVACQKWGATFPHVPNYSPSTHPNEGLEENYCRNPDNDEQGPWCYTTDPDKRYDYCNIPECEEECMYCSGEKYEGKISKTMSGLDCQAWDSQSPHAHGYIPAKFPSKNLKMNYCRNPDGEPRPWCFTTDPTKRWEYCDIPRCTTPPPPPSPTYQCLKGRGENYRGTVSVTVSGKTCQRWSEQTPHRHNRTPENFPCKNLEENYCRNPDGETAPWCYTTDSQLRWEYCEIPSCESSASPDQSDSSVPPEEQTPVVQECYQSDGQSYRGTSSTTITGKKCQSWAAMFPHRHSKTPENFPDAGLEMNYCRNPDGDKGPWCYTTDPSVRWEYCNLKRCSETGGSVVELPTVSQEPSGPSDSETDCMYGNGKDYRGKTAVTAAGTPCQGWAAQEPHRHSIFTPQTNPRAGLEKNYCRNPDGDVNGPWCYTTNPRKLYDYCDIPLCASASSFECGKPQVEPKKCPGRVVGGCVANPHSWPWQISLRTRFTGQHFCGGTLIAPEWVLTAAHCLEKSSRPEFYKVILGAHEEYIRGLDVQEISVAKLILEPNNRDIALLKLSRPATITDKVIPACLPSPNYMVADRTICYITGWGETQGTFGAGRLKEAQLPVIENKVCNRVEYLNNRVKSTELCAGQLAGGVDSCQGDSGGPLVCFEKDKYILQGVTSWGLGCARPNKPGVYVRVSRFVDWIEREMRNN

SMILES: NC[C@H]1CC[C@H](C(=O)O)CC1 [TXA, trans-4 (aminomethyl) cyclohexanecarboxylic acid]
- expression of PAI-1 in skin (PAI-1): decreased expression
- inhibition of plasminogen accumulation in wounds (plasminogen): 50%
- level of IL-1β expression in skin (IL-1β): very low
- expression of IL-6 in skin (IL-6): decreased expression
- development and severity of radio-dermatitis ([1]; TXA 800 mg/kg intraperitoneally three times per day, from 2 days before to 15 days after irradiation, vs carrier): delayed development of dermatitis and with a lower severity
- development and severity of radio-dermatitis ([1]; TXA in drinking water 700 mg/kg/day, vs control WT mice treated with water only): significant delay in development of radio-dermatitis and a lower severity of skin damage
- development of radio-dermatitis ([1]; irradiated plg+/- mice, TXA 800 mg/kg intraperitoneally three times per day, from 2 days before to 15 days after irradiation): completely blocked
- formation of radiodermatitis ([1]; irradiated plg+/- mice, TXA in drinking water 700 mg/kg/day): totally inhibited formation of radiodermatitis
- expression of TGF-β in skin (TGF-β): decreased expression
